According to publication doi:10.1101/2022.12.23.521429v4, “Structural perspective on the design of selective DYRK1B inhibitors” (biorxiv, 2025):

What was measured:
[1] = biological target: T1, DYRK1B kinase domain (78-442) (Homo sapiens, UniProt Q9Y463); experiment: Sypro Orange thermal shift assay; assay type: binding; settings: read-out: shift in Tm
T1 construct: kinase domain 78-442, C-terminal TEV site and His-tag (ENLYFQ*GHHHHHH), His-tag cleaved by TEV; E. coli LOBSTR; Tyr273 autophosphorylated

[2] = biological target: T2, DYRK1A kinase domain (126-490) (Homo sapiens, UniProt Q13627); experiment: kinase activity assay; assay type: biochemical; settings: co-substrate and buffer of the KM determination not told
T2 construct: also printed 124-490 in b15 and 126-489), non-cleavable C-terminal His-tag kept; E. coli LOBSTR; Tyr321 phosphorylated; b63 prints Q9Y463 (swapped with DYRK1B)

| SMILES | ΔTm at 10 µM [1] [°C] | Km [2] [µM] |
| --- | --- | --- |
| COc1cc(N2CCN(C)CC2)ccc1Nc1nccc(-c2cn(C)c3cnccc23)n1 [AZ191] | 12 | – |
| Nc1ncnc2c1ncn2[C@@H]1O[C@H](COP(=O)(O)OP(=O)(O)OP(=O)(O)O)[C@@H](O)[C@H]1O [ATP] | – | 118 |
